Data on ten compounds can be found in patent US20250100997A1, “PYRIDAZINYL AMINO DERIVATIVES AS ALK5 INHIBITORS” (CHIESI FARMACEUTICI S.P.A., priority 2022, published 2025).

Broadly, the Ki is a dissociation constant, usually derived from enzyme kinetics or from competition with a known ligand.

In the test the target is T1, human ALK5 (recombinant TGF β1 N-term GST-tagged, 80-end) (Homo sapiens, UniProt P36897).
T1 construct: human ALK5 (recombinant TGF β1 N-term GST-tagged, 80-end); GST (N); purchased
T1 sequence (P36897 80-503 limits assumed): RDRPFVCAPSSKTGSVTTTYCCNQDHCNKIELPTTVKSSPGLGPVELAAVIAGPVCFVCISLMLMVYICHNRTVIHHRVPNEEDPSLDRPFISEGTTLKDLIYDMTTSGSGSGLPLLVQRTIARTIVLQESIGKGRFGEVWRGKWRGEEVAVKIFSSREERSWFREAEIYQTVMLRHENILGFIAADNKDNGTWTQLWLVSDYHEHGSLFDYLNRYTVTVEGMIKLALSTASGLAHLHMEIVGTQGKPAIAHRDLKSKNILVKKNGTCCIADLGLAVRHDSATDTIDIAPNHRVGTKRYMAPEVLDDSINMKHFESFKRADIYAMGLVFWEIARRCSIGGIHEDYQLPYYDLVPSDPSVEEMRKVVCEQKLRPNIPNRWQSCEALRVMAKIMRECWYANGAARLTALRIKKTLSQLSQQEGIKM
Description: ADP-GLO kinase assay, biochemical ALK5 assay. Conditions: pIC50 converted to pKi using the Cheng-Prusoff equation, ATP at Km, or high ATP (30-fold Km) for very potent compounds, 25° C. How it is done:
The enzymatic activity of compounds of the present invention was monitored measuring the formation of ADP using the ADP-GLO Kinases assay. Following the incubation of the purified enzyme, a substrate and ATP, the produced ADP was converted into ATP, which in turn was converted into light by Ultra-Glo Luciferase. The luminescent signal positively correlated with ADP amount and kinase activity. Briefly, the kinase reaction was performed by incubating 2.6 nM of the purified, commercially available human ALK5 (recombinant TGF β1 N-term GST-tagged, 80-end), a final concentration of TGFβ1 peptide 94.5 μM (Promega, T36-58) and ultra-pure ATP (Promega V915B). The ATP concentration was set at the Km value (concentration of substrate which permits the enzyme to achieve half maximal velocity (Vmax)) of ALK5 (0.5 μM). Compound and ALK5 kinase were mixed and incubated for 15 mins. Reactions were initiated by addition of ATP at a final concentration in the assay of […]. After an incubation of 120 min, the reaction was stopped, and ADP production detected with ADP-Glo kit according to manufacturer's indications. To overcome the assay wall limit for very potent compounds the assay protocol was changed by using a high ATP concentration (30-fold Km). Compounds and ALK5 kinase were mixed for 15 min and the reaction initiated by addition of TGFβ1 peptide and ATP at a final concentration in the assay of 15 μM. After an incubation of 60 min, the kinase reaction was stopped, and ADP production detected with ADP-Glo kit according to manufacturer's indications.
All reaction and incubation steps were performed at 25° C. and the assays were performed in 384-well format and validated using a selection of reference compounds tested in 11-point concentration-response curve.
Results were expressed as pIC50 (negative logarithm of IC50) and subsequently converted to pKi (negative logarithm of […]) using the Cheng-Prusoff equation. The higher the value of pKi, the greater the inhibition of ALK5 activity.
In general terms: In ADP-Glo the light output rises with the ADP produced.
As for `CN1CCN(CCC(=O)Nc2cc(Nc3cc(-c4cc(Cl)ccc4F)nnc3C3=CCN(C(=O)OC(C)(C)C)CC3)ccn2)CC1` [Example 1, tert-butyl 4-[6-(5-chloro-2-fluorophenyl)-4-({2-[3-(4-methylpiperazin-1-yl)propanamido]pyridin-4-yl}amino)pyridazin-3-yl]-1,2,3,6-tetrahydropyridine-1-carboxylate], the Ki is 1 to 3.16 nM.
Regarding `CN1CCN(CCC(=O)Nc2cc(Nc3cc(-c4cc(Cl)ccc4F)nnc3C3CCN(C(=O)OC(C)(C)C)CC3)ccn2)CC1` [Example 2, tert-butyl 4-[6-(5-chloro-2-fluorophenyl)-4-({2-[3-(4-methylpiperazin-1-yl)propanamido]pyridin-4-yl}amino)pyridazin-3-yl]piperidine-1-carboxylate], the Ki was 1 to 3.16 nM.
Regarding `CN1CCN(CCC(=O)Nc2cc(Nc3cc(-c4cc(Cl)ccc4F)nnc3C3=CCNCC3)ccn2)CC1` [Example 3, N-(4-{[6-(5-chloro-2-fluorophenyl)-3-(1,2,3,6-tetrahydropyridin-4-yl)pyridazin-4-yl]amino}pyridin-2-yl)-3-(4-methylpiperazin-1-yl)propanamide], the Ki was 1 to 3.16 nM.
Consider `CN1CCN(CCC(=O)Nc2cc(Nc3cc(-c4cc(Cl)ccc4F)nnc3C3CCNCC3)ccn2)CC1` [Example 4, N-(4-{[6-(5-chloro-2-fluorophenyl)-3-(piperidin-4-yl)pyridazin-4-yl]amino}pyridin-2-yl)-3-(4-methylpiperazin-1-yl)propanamide], for which the Ki was 0.126 to 0.794 nM.
In the case of `COC(=O)N1CC=C(c2nnc(-c3cc(Cl)ccc3F)cc2Nc2ccnc(NC(=O)CCN3CCN(C)CC3)c2)CC1` [Example 5, methyl 4-[6-(5-chloro-2-fluorophenyl)-4-({2-[3-(4-methylpiperazin-1-yl)propanamido]pyridin-4-yl}amino)pyridazin-3-yl]-1,2,3,6-tetrahydropyridine-1-carboxylate], the Ki was 1 to 3.16 nM.
As to `CN1CC=C(c2nnc(-c3cc(Cl)ccc3F)cc2Nc2ccnc(NC(=O)CCN3CCN(C)CC3)c2)CC1` [Example 6, N-(4-{[6-(5-chloro-2-fluorophenyl)-3-(1-methyl-1,2,3,6-tetrahydropyridin-4-yl)pyridazin-4-yl]amino}pyridin-2-yl)-3-(4-methylpiperazin-1-yl)propanamide], the Ki was 1 to 3.16 nM.
For the compound `COC(=O)N1CCC(c2nnc(-c3cc(Cl)ccc3F)cc2Nc2ccnc(NC(=O)CCN3CCN(C)CC3)c2)CC1` [Example 7, methyl 4-[6-(5-chloro-2-fluorophenyl)-4-({2-[3-(4-methylpiperazin-1-yl)propanamido]pyridin-4-yl}amino)pyridazin-3-yl]piperidine-1-carboxylate], the Ki was 0.126 to 0.794 nM.
As to `CN1CCC(c2nnc(-c3cc(Cl)ccc3F)cc2Nc2ccnc(NC(=O)CCN3CCN(C)CC3)c2)CC1` [Example 8, N-(4-{[6-(5-chloro-2-fluorophenyl)-3-(1-methylpiperidin-4-yl)pyridazin-4-yl]amino}pyridin-2-yl)-3-(4-methylpiperazin-1-yl)propanamide], the Ki was 1 to 3.16 nM.
Turning to `CN1CCN(CCC(=O)Nc2cc(Nc3cc(-c4cc(Cl)ccc4F)nnc3C3CN(C(=O)OC(C)(C)C)C3)ccn2)CC1` [Example 9, tert-butyl 3-[6-(5-chloro-2-fluorophenyl)-4-({2-[3-(4-methylpiperazin-1-yl)propanamido]pyridin-4-yl}amino)pyridazin-3-yl]azetidine-1-carboxylate], the inhibition constant Ki is 0.126 to 0.794 nM.
Regarding `CN1CCN(CCC(=O)Nc2cc(Nc3cc(-c4cc(Cl)ccc4F)nnc3C3CNC3)ccn2)CC1` [Example 10, N-(4-{[3-(azetidin-3-yl)-6-(5-chloro-2-fluorophenyl)pyridazin-4-yl]amino}pyridin-2-yl)-3-(4-methylpiperazin-1-yl)propanamide], the Ki was 0.126 to 0.794 nM.
